One test deals with T1, ZIP1 (Arabidopsis thaliana, UniProt O81123).
T1 construct: expressed in transfected cells; host or cells: S. cerevisiae ZHY3 (zrt1::LEU2 zrt2::HIS3) with an Arabidopsis cDNA clone in pFL61
T1 sequence (O81123 29-355): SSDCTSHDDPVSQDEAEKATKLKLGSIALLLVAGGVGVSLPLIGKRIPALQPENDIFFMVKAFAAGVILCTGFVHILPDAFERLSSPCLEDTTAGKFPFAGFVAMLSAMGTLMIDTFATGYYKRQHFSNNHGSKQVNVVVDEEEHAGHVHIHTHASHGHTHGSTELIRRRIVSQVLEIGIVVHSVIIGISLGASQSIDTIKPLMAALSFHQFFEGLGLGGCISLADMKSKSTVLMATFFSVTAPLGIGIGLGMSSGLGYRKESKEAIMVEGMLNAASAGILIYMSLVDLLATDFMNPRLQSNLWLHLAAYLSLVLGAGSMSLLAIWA
As to the kind of experiment: Zn uptake by ZHY3 containing the ZIP1 gene. The format is cell-based. The settings on record: 5 minute time course using 10 mM Zn. On the procedure:
(§1) Zinc uptake assays were performed as described previously for iron uptake (Eide et al. (1992) J. Biol. Chem. 267:20774-20781) except that ^65ZnCl2 (Amersham) and LZM-EDTA were substituted for ^59FeCI3 and LIM-EDTA, respectively. Cells were incubated for 5 minutes in LZM-EDTA plus the indicated concentration of ^65Zn, collected on glass fiber filters (Schleicher and Schuell), washed with 10 ml ice-cold SSW (1 mM EDTA, 20 mM trisodium citrate, 1 mM KH2PO4, 1 mM CaCl2, 5 mM MgSO4, 1 mM NaCl pH 4.2), and cell-associated radioactivity was measured by liquid scintillation counting. […] Michaelis-Menten kinetic values were determined using […] software (Intellikinetics, Princeton, N.J.). […] The statistical significance of the differences of values relative to controls was determined with one-way analysis of variance (ANOVA) followed by a Dunnett multiple comparison test. β-galactosidase activity was assayed in cells harvested at an OD600 of 0.5-2.0 as described by Guarente (Guarente, L. (1983) Methods Enzymol. 101:181-191) and activity is expressed as the change in absorbance at 420 nm×1000 divided by (min×ml of culture used×OD600 of the culture). Cell-associated zinc was measured in parallel cultures supplemented with tracer amounts of ^65Zn (10 μM) and nonradioactive zinc to the indicated final concentration. […]

The test system of a further test is zrt2 (ZHY2) cells. As to the kind of experiment: Zinc-limited growth, zrt2 mutant yeast. The format is cell-based, Saccharomyces cerevisiae. The settings on record: zrt2, LZM, 16 hours. As to the method:
Strains used were DY1457 (MATα ade6 can1 his3 leu2 trp1 ura3), ZHY1 (AMTα ade6 can1 his3 leu2 trp1 ura3 zrt1::LEU2), ZHY2 (MATα ade6 can1 his3 leu2 trp1 ura3 zrt2::HIS3), and ZHY3 (MATα ade6 can1 his3 leu2 trp1 ura3 zrt1::LEU2 zrt2::HIS3). Yeast were grown in YP or SD media (Sherman et al. (1986) Methods in Yeast Genetics, Cold Spring Harbor Laboratory, Cold Spring Harbor, N.Y.) supplemented with necessary auxotrophic requirements and either 2% glucose or 2% galactose. Zinc-limiting YP and SD agar plates contained either bathophenanthroline disulfonate (BPS, 200 μM) or EDTA (1 mM), respectively. […] The concentrations of free (i.e. unchelated) zinc were calculated using MAXCHELATOR software (Chris Patton, Stanford University). Cell number in liquid cultures was determined by measuring the absorbance of cell suspensions at 600 nm (OD600) and converting to cell number with a standard curve.
To further assess the role of the low affinity system as a source of zinc, growth of wild type and zrt2 cells in a zinc-limiting medium, LZM, supplemented with increasing amounts of zinc was examined. […] Number of cell divisions are plotted against [Zn]T and the calculated free zinc concentration ([Zn]F). […]

For another test, the system named is zrt1 strain. As to the kind of experiment: Cell-associated zinc, zrt1 strain. The class given is cell-based, Saccharomyces cerevisiae. On the procedure:
as §1

SMILES strings stand for the structures.

Consider `[Zn+2]` [zinc], for which the Zn uptake rate on ZIP1 is given as 191 fmol/min/10^6 cells. Further, in the test on zrt2 (ZHY2) cells, the “calculated free zinc [Zn]F sufficient for maximum growth yield” value is roughly 6 pM and the “total zinc sufficient for maximum growth yield” value turned out to be 10 µM. The compound also yielded a cell-associated zinc in the test on zrt1 strain (10 μM total zinc) of 133±12 pmol/10^6 cells. This compound showed a cell-associated zinc in the test on zrt1 strain (1000 μM total zinc) of 168±14 pmol/10^6 cells.

The values are drawn from patent publication US6590140B1, “Metal-regulated transporters and uses therefor” (Trustees of Dartmouth College, priority 1996, dated 2003).
